# Laboratory results published in patent publication US10316008B2, “KCNQ potassium channel agonist, and preparation method therefor and use thereof” (SHANGHAI INSTITUTE OF MATERIA MEDICA, CHINESE ACADEMY OF …, priority 2014, dated 2019).
# Columns and labels:
# [1] = target: T1, KCNQ2/3 heterotetramer channel (Homo sapiens, UniProt O43525+O43526); assay: KCNQ2/3 heterotetramer channel dose-response curve in CHO-K1 cells cotransfected with KCNQ2 and KCNQ3 plasmids; type: cell-based
# T1 construct: expressed in transfected cells; host or cells: CHO-K1
# Protocol: (§1) The culture medium for Chinese hamster oocytes (CHO-K1) (Culture Collection of Chinese Academy of Sciences): 50/50 DMEM/F-12 (Cellgro, Manassas, Va.), added with 10% fetal bovine serum (FBS) (Gibco, Australia) and 2 mM L-glutamic acid (Invitrogen). Expression of KCNQ channels: 24 h before transfection, CHO-K1 spreaded on a dish with a diameter of 60 mm. Lipofectamine 2000™ agent (Invitrogen) was used for Transfection according to the protocol thereof. GFP (green fluorescent protein) was cotransfected to be used as a indication of successful converting into KCNQ plasmid.
# (§2) Whole-cell voltage-clamp recording was performed on an Axopatch-200B amplifier (Molecular Devices, Sunnyvale, Calif.) at room temperature. The electrode was made by drawing borosilicate glass capillary (World Precision Instruments, Sarasota, Fla.). The electric resistance of the electrode filled with an intracellular fluid is 3 to 5 MΩ. The composition of the intracellular fluid (1 L) was as follows: 145 mM KCl(Sigma), 1 mM MgCl2(Sigma), 5 mM EGTA(Sigma), 10 mM HEPES(Sigma) and 5 mM MgATP(Sigma) (pH was adjusted to 7.3 with KOH). During the recording, an extracellular fluid was continuously perfused by using a BPS perfusion system (ALA Scientific Instruments, Westburg, N.Y.). The composition of the extracellular fluid (1 L) was as follows: 140 mM NaCl(Sigma), 5 mM KCl(Sigma), 2 mM CaCl2(Sigma), 1.5 mM MgCl2(Sigma), 10 mM HEPES(Sigma) and 10 mM glucose(Sigma) (pH was adjusted to 7.4 with NaOH). Electric signal was filtered at 1 kHz and further converted into digital signal by using pClamp 9.2 software (Molecular Devices, Sunnyvale, Calif.) in DigiData 1322A. Series resistors compensate 60 to 80%. Up to date, multivoltage scheme was generally adopted, wherein the clamp voltage was set at −80 mV, stimulating voltage was a gradient voltage from −90 mV to 60 mV with interval of 10 mV, and the stimulating time for each voltage was 2000 ms.
# (§3) The experimental procedure was the same as that in Electrophysiological Example 1. […]
# [2] = target: T2, KCNQ2 homotetramer channel (Homo sapiens, UniProt O43526); assay: KCNQ2 channel dose-response curve in CHO-K1 cells transfected with KCNQ2 plasmid; type: cell-based
# T2 construct: expressed in transfected cells; host or cells: CHO-K1
# T2 sequence (O43526 whole entry): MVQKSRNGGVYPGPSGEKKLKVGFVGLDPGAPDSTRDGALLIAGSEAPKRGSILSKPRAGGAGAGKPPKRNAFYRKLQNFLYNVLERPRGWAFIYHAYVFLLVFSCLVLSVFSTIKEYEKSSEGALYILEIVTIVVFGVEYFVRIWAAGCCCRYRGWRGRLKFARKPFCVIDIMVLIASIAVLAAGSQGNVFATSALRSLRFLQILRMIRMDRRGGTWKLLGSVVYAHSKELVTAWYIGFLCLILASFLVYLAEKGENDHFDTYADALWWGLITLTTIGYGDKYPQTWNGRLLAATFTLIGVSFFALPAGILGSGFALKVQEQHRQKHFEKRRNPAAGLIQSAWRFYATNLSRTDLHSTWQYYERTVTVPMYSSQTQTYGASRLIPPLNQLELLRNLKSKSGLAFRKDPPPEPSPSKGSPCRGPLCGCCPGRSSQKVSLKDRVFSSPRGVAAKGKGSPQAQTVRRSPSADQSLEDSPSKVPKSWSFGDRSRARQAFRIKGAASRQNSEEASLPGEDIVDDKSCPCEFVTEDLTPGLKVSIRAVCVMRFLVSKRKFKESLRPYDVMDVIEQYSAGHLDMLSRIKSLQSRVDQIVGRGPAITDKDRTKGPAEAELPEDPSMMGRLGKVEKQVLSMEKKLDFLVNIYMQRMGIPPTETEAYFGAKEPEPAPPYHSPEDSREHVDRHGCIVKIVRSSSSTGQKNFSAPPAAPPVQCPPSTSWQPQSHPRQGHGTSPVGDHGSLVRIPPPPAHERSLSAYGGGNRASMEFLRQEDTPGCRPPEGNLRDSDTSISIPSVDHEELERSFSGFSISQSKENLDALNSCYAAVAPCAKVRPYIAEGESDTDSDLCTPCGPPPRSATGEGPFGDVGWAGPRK
# Protocol: as §1, §2, §3
smiles,measurement,setting,value
"C#CCN(Cc1ccc(F)cc1)c1cc(C)c(NC(=O)OC)c(C)c1 [Compound K43, methyl 4-(N-parafluorobenzyl-N-propargyl-amino)-2,6-dimethylphenylaminoformate]",EC50,"[1]; FIG. 2, Boltzmann fit",0.049 µM
same,agonistic activity on KCNQ2/3 heterotetramer channel relative to K21,[1]; fold of K21,≥ 20 times
same,agonistic activity on KCNQ2/3 heterotetramer channel relative to RTG,[1]; fold of RTG,≥ 30 times
same,EC50,"[2]; FIG. 1, Boltzmann fit, read-out: EC50",0.00153 µM
same,agonistic activity on KCNQ2 homotetramer channel relative to RTG,[2]; fold of RTG,more than 800 times
